Results from US10376520B2, “Methods for the treatment of cardiovascular disorders” (Galapagos NV, priority 2015, dated 2019).

Tests used:
[1] = system: Japanese and Caucasian healthy subjects; experiment: [HDL] determination, Study 3 (healthy volunteers); format: in vivo, human; conditions: 200 mg q.d.
Description: Randomized, double-blind, placebo-controlled study for the assessment of safety, tolerability, pharmacokinetics, and pharmacodynamics, of multiple oral doses of Compound 1 (dosed as a [Compound 1:HCl:3H2O]) in Japanese and Caucasian healthy subjects.
Randomized, double-blind, placebo-controlled, single center, sequential design study.
Compound 1 (dosed as a [Compound 1:HCl:3H2O]) is administered for 10 days as oral film-coated tablet (25 and 100 mg and matching placebos). Placebo are provided as a matching tablet.
The study drug is ingested with 240 mL water after a standardized breakfast on Days 2-9. On PK days (Day 1 and Day 10) the study drug is administered in a fasted state (subjects will receive lunch 4 h after dosing on Day 1 and Day 10).
10 Japanese subjects (6 active, 4 placebo) and 10 Caucasian subjects (6 active, 4 placebo) will receive once daily an oral dose of 200 mg Compound 1 (dosed as a [Compound 1:HCl:3H2O]) or matching placebo as two tablets of 100 mg or matching placebo for 10 days. For practical reasons, these subjects may be split over separate groups, each group consisting of an equal number of Japanese and Caucasian Compound 1 (dosed as a [Compound 1:HCl:3H2O]) treated subjects and Japanese and Caucasian placebo subjects.
This assay relies on a homogeneous enzymatic colorimetric test. In the presence of magnesium ions, dextran sulfate selectively forms water-soluble complexes with LDL, VLDL and chylomicrons which are resistant to PEG-modified enzymes.
The cholesterol concentration of [HDL]-cholesterol is determined enzymatically by cholesterol esterase and cholesterol oxidase coupled with PEG to the amino groups (approx. 40%).
In the presence of peroxidase, the hydrogen peroxide generated reacts with 4-amino-antipyrine and Sodium N-(2-hydroxy-3-sulfopropyl)-3,5-dimethoxyaniline (HSDA) to form a purple-blue dye. The color intensity of this dye is directly proportional to the cholesterol concentration and is measured photometrically.
Human serum and plasma samples [HDL] determination was done on a Roche/Hitachi Cobas c 701/702 system which automatically calculate the analyte concentration of each sample. Samples containing precipitates are centrifuged before performing the assay.

[2] = system: RA patients; experiment: Plasma CETP concentration (ELISA), Study 4; format: in vivo, human; conditions: for CETP level, 4 weeks CFB: 4 weeks change from baseline
Description: Randomized double-blind, placebo-controlled add on study in subjects with active RA who have an inadequate response to MTX monotherapy, in combination with methotrexate, administered for 4 weeks in the treatment of subjects with active rheumatoid arthritis who have an inadequate response to methotrexate alone.
Compound 1 (dosed as a [Compound 1:HCl:3H2O]) capsules administered orally in 30 mg, 75 mg, 150 mg, or 300 mg doses per day for 4 weeks.
Plasma CETP concentration was determined using a commercial available ELISA kit from Alpco (26-G Keewaydin Drive, Salem, N.H. 03079 USA) according to manufacturer's instruction. Catalogue number 47-CETH-E01, lot number used: 812RCL.

O=C(Nc1nc2cccc(-c3ccc(CN4CCS(=O)(=O)CC4)cc3)n2n1)C1CC1 [Compound 1, cyclopropanecarboxylic acid {5-[4-(1,1-dioxo-thiomorpholin-4-ylmethyl)-phenyl]-[1,2,4]triazolo[1,5-a]pyridin-2yl}-amide]
[HDL] % Mean % variation vs baseline 10 days ([1]; Caucasian): 6%
[HDL] levels ([1]; Caucasian, day 0): 1.5 mmol/L
[HDL] levels ([1]; Caucasian, day 5): 1.5 mmol/L
[HDL] levels ([1]; Caucasian, day 10): 1.6 mmol/L
[HDL] levels ([1]; Caucasian, day 17): 1.6 mmol/L
[HDL] % Mean % variation vs baseline 10 days ([1]; Japanese): 15.6%
[HDL] levels ([1]; Japanese, day 0): 1.3 mmol/L
[HDL] levels ([1]; Japanese, day 5): 1.3 mmol/L
[HDL] levels ([1]; Japanese, day 10): 1.5 mmol/L
[HDL] levels ([1]; Japanese, day 17): 1.4 mmol/L
CETP level, 4 weeks CFB ([2]; 30 mg q.d.): 2.4%
CETP level, Baseline ([2]; 30 mg q.d.): 3.2 µg/mL
CETP level, week 4 ([2]; 30 mg q.d.): 3.2 µg/mL
CETP level, 4 weeks CFB ([2]; 75 mg q.d.): −2.8%
CETP level, Baseline ([2]; 75 mg q.d.): 2.8 µg/mL
CETP level, week 4 ([2]; 75 mg q.d.): 2.7 µg/mL
CETP level, 4 weeks CFB ([2]; 150 mg q.d.): −11.4%
CETP level, Baseline ([2]; 150 mg q.d.): 2.8 µg/mL
CETP level, week 4 ([2]; 150 mg q.d.): 2.3 µg/mL
CETP level, 4 weeks CFB ([2]; 300 mg q.d.): −10.2%
CETP level, Baseline ([2]; 300 mg q.d.): 2.5 µg/mL
CETP level, week 4 ([2]; 300 mg q.d.): 2.2 µg/mL
